In patent US9902728B2, “Pyrrolo and pyrazolopyrimidines as ubiquitin-specific protease 7 inhibitors” (Forma Therapeutics, Inc., priority 2014, dated 2018):

Target: T1, USP7 (Homo sapiens, UniProt Q93009)
T1 construct: USP7, construct USP7 (208-1102) 6*His, Viva Biotech; 6xHis (C); purchased Viva Biotech
Test: USP7 Assay A (Ubitquin-Rhodamine 110 Assay)
Format: biochemical
Settings: USP7 assay A and B (table does not say which assay per compound); read-out: USP7_IC50
Description: Each assay was performed in a final volume of 15 μL in assay buffer containing 20 mM Tris-HCl (pH 8.0, (1M Tris-HCl, pH 8.0 solution; Corning 46-031-CM)), 1 mM GSH (L-Glutathione reduced; Sigma #G4251), 0.03% BGG ([…], Sigma, #G7516-25G), and 0.01% Triton X-100 (Sigma, #T9284-10L). […] 5 μL of 2× enzyme was added to assay plates (pre-stamped with compound) preincubated with USP7 for 30 minutes and then 5 μL of 2×Ub-Rh110 was added to assay plates. […] Fluorescence was read on the Envision (Excitation at 485 nm and Emission at 535 nm; Perkin Elmer) or on the PheraSTAR (Excitation at 485 nm and Emission at 535 nm; BMG Labtech).
Data from USP7 Assays A and B were reported as percent inhibition (inh) compared with control wells based on the following equation: % inh=1−((FLU−AveLow)/(AveHigh−AveLow)) where FLU=measured Fluorescence (See Tables 6-10). AveLow=average Fluorescence of no enzyme control (n=16). AveHigh=average Fluorescence of DMSO control (n=16). […] Data is fitted using the Levenburg Marquardt algorithm.

T1 sequence (Q93009 208-1102): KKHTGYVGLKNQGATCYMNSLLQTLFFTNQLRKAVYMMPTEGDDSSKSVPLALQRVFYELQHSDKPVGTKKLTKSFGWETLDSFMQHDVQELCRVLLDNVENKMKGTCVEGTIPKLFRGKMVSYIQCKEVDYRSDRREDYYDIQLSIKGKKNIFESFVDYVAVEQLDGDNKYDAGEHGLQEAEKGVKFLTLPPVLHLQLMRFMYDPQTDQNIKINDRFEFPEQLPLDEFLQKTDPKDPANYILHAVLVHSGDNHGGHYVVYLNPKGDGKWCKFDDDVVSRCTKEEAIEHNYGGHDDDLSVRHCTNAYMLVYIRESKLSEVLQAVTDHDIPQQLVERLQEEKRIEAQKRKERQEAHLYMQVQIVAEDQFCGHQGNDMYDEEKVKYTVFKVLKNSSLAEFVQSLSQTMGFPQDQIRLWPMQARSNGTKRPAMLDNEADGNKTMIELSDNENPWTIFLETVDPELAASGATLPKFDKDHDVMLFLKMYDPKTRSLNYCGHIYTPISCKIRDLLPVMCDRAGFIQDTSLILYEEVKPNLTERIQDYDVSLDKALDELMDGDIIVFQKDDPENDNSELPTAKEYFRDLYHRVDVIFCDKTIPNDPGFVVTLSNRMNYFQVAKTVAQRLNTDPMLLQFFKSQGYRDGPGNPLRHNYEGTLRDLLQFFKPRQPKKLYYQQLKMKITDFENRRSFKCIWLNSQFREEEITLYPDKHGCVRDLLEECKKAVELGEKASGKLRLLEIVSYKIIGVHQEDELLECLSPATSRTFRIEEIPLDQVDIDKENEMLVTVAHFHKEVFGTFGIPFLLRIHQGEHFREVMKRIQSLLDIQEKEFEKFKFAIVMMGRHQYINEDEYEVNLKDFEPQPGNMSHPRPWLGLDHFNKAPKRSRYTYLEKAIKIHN

Row | Compound | IC50 [µM]
1 | O=C(c1ccc(C2CC2)cc1)N1CCC(O)(Cn2cnc3c(cnn3-c3ccccc3)c2=O)CC1 [Compound I-156] | 0.2 to 1
2 | COc1ccc(C(=O)N2CCC(O)(Cn3cnc4c(cnn4-c4ccccc4)c3=O)CC2)cc1 [Compound I-157] | 0.2 to 1
3 | O=C(C1CC1)N1CCC(O)(Cn2cnc3c(cnn3-c3ccccc3)c2=O)CC1 [Compound I-158] | 1 to 10
4 | O=C(c1ccc(=O)[nH]c1)N1CCC(O)(Cn2cnc3c(cnn3-c3ccccc3)c2=O)CC1 [Compound I-160] | 0.2 to 1
5 | CS(=O)(=O)Nc1ccc(C(=O)N2CCC(O)(Cn3cnc4c(cnn4-c4ccccc4)c3=O)CC2)cc1 [Compound I-164] | 0.2 to 1
6 | C=CS(=O)(=O)NCC(Cc1ccccc1)C(=O)N1CCC(O)(Cn2cnc3c(cnn3C)c2=O)CC1 (stereo not shown) [Compound I-170] | > 10
7 | NC(=O)c1cccc(C(=O)N2CCC(O)(Cn3cnc4c(cnn4-c4ccccc4)c3=O)CC2)c1 [Compound I-172] | 1 to 10
8 | C=CS(=O)(=O)Nc1ccc(C(=O)N2CCC(O)(Cn3cnc4c(cnn4-c4ccccc4)c3=O)CC2)cc1 [Compound I-173] | 0.2 to 1
9 | C[C@H](CC(=O)N1CCC(O)(Cn2cnc3c(cnn3-c3ccccc3)c2=O)CC1)n1cccn1 [Compound I-175] | < 0.2
10 | C[C@@H](CC(=O)N1CCC(O)(Cn2cnc3c(cnn3-c3ccccc3)c2=O)CC1)n1cccn1 [Compound I-176] | 1 to 10
11 | C[C@H](CC(=O)N1CCC(O)(Cn2cnc3c(cnn3-c3ccccc3)c2=O)CC1)n1cccc1 [Compound I-177] | < 0.2
12 | C[C@@H](CC(=O)N1CCC(O)(Cn2cnc3c(cnn3-c3ccccc3)c2=O)CC1)n1cccc1 [Compound I-178] | 1 to 10
13 | NC(=O)c1ccc(C(=O)N2CCC(O)(Cn3cnc4c(cnn4-c4ccccc4)c3=O)CC2)cc1 [Compound I-179] | 0.2 to 1
14 | CC(=O)Nc1cccc(C(=O)N2CCC(O)(Cn3cnc4c(cnn4-c4ccccc4)c3=O)CC2)c1 [Compound I-181] | 1 to 10
15 | CNS(=O)(=O)c1ccc(C(=O)N2CCC(O)(Cn3cnc4c(cnn4-c4ccccc4)c3=O)CC2)cc1 [Compound I-182] | 1 to 10
16 | CNC(=O)c1ccc(C(=O)N2CCC(O)(Cn3cnc4c(cnn4-c4ccccc4)c3=O)CC2)cc1 [Compound I-184] | 0.2 to 1
17 | O=C(C1CCCCC1)N1CCC(O)(Cn2cnc3c(cnn3-c3ccccc3)c2=O)CC1 [Compound I-189] | 0.2 to 1
18 | O=C(c1ccc(F)cc1)N1CCC(O)(Cn2cnc3c(cnn3-c3ccccc3)c2=O)CC1 [Compound I-190] | 0.2 to 1
19 | O=C(c1ccncc1)N1CCC(O)(Cn2cnc3c(cnn3-c3ccccc3)c2=O)CC1 [Compound I-191] | 1 to 10
20 | O=C(C1CCC1)N1CCC(O)(Cn2cnc3c(cnn3-c3ccccc3)c2=O)CC1 [Compound I-194] | 1 to 10
21 | O=C(C1CCCC1)N1CCC(O)(Cn2cnc3c(cnn3-c3ccccc3)c2=O)CC1 [Compound I-195] | 0.2 to 1
22 | Cc1cc(C)cc(C(=O)N2CCC(O)(Cn3cnc4c(cnn4-c4ccccc4)c3=O)CC2)c1 [Compound I-197] | 1 to 10

Row | Compound | IC50 [µM]
23 | Cc1ccc(C(=O)N2CCC(O)(Cn3cnc4c(cnn4-c4ccccc4)c3=O)CC2)cc1C [Compound I-200] | 1 to 10
24 | COc1cc(OC)cc(C(=O)N2CCC(O)(Cn3cnc4c(cnn4-c4ccccc4)c3=O)CC2)c1 [Compound I-203] | > 10
25 | Cc1cccc(C(=O)N2CCC(O)(Cn3cnc4c(cnn4-c4ccccc4)c3=O)CC2)c1F [Compound I-206] | 1 to 10
26 | O=C(c1ccc(F)cc1F)N1CCC(O)(Cn2cnc3c(cnn3-c3ccccc3)c2=O)CC1 [Compound I-209] | 1 to 10
27 | O=C(c1ccc(F)c(Cl)c1)N1CCC(O)(Cn2cnc3c(cnn3-c3ccccc3)c2=O)CC1 [Compound I-210] | 1 to 10
28 | Cc1ccc(C(=O)N2CCC(O)(Cn3cnc4c(cnn4-c4ccccc4)c3=O)CC2)cc1Cl [Compound I-211] | 0.2 to 1
29 | Cc1cc(C(=O)N2CCC(O)(Cn3cnc4c(cnn4-c4ccccc4)c3=O)CC2)ccc1Cl [Compound I-212] | 0.2 to 1
30 | O=C(c1ccc(Cl)c(Cl)c1)N1CCC(O)(Cn2cnc3c(cnn3-c3ccccc3)c2=O)CC1 [Compound I-213] | 1 to 10
31 | COc1ccc(C(=O)N2CCC(O)(Cn3cnc4c(cnn4-c4ccccc4)c3=O)CC2)cc1Cl [Compound I-214] | 0.2 to 1
32 | COc1ccc(Cl)cc1C(=O)N1CCC(O)(Cn2cnc3c(cnn3-c3ccccc3)c2=O)CC1 [Compound I-218] | 1 to 10
33 | COc1ccc(OC)c(C(=O)N2CCC(O)(Cn3cnc4c(cnn4-c4ccccc4)c3=O)CC2)c1 [Compound I-221] | 1 to 10
34 | O=C(c1cc(Cl)ccc1Cl)N1CCC(O)(Cn2cnc3c(cnn3-c3ccccc3)c2=O)CC1 [Compound I-223] | 0.2 to 1
35 | O=C(c1ccc(Cl)cc1Cl)N1CCC(O)(Cn2cnc3c(cnn3-c3ccccc3)c2=O)CC1 [Compound I-224] | 0.2 to 1
36 | COc1cc(C(=O)N2CCC(O)(Cn3cnc4c(cnn4-c4ccccc4)c3=O)CC2)ccc1Cl [Compound I-226] | 1 to 10
37 | Cc1cnc(C(=O)N2CCC(O)(Cn3cnc4c(cnn4-c4ccccc4)c3=O)CC2)cn1 [Compound I-227] | > 10
38 | Cc1cc(C(=O)N2CCC(O)(Cn3cnc4c(cnn4-c4ccccc4)c3=O)CC2)nn1C [Compound I-229] | 1 to 10
39 | Cc1nc(C)c(C(=O)N2CCC(O)(Cn3cnc4c(cnn4-c4ccccc4)c3=O)CC2)s1 [Compound I-230] | 1 to 10
40 | Nc1cc(Cl)ccc1C(=O)N1CCC(O)(Cn2cnc3c(cnn3-c3ccccc3)c2=O)CC1 [Compound I-232] | 0.2 to 1
41 | Nc1ccc(Cl)cc1C(=O)N1CCC(O)(Cn2cnc3c(cnn3-c3ccccc3)c2=O)CC1 [Compound I-233] | 0.2 to 1
42 | O=C(c1cnc(-c2ccccc2)o1)N1CCC(O)(Cn2cnc3c(cnn3-c3ccccc3)c2=O)CC1 [Compound I-252] | 0.2 to 1
43 | C#CC(=O)NC1CC(C(=O)N2CCC(O)(Cn3cnc4c(cnn4-c4ccccc4)c3=O)CC2)C1 (stereo not shown) [Compound I-259] | 1 to 10
44 | O=C(C1CC1)N1CCC(O)(Cn2cnc3c(cnn3-c3ccc(Cl)cc3Cl)c2=O)CC1 [Compound I-264] | > 10

Row | Compound | IC50 [µM]
45 | O=C(c1ccccc1)N1CCC(O)(Cn2cnc3c(cnn3-c3ccc(F)cc3)c2=O)CC1 [Compound I-266] | 1 to 10
46 | COc1ccc(C(=O)N2CCC(O)(Cn3cnc4c(cnn4-c4ccc(F)cc4)c3=O)CC2)cc1 [Compound I-267] | 0.2 to 1
47 | O=C(c1ccc(F)cc1)N1CCC(O)(Cn2cnc3c(cnn3-c3ccc(F)cc3)c2=O)CC1 [Compound I-268] | 1 to 10
48 | CC1(C(=O)N2CCC(O)(Cn3cnc4c(cnn4-c4ccccc4)c3=O)CC2)CC1 [Compound I-271] | 1 to 10
49 | O=C(O)c1ccc(C(=O)N2CCC(O)(Cn3cnc4c(cnn4-c4ccccc4)c3=O)CC2)cc1 [Compound I-272] | 1 to 10
50 | O=C(c1ccc(OC(F)F)cc1)N1CCC(O)(Cn2cnc3c(cnn3-c3ccccc3)c2=O)CC1 [Compound I-274] | 1 to 10
51 | O=C(C1CC1)N1CCC(O)(Cn2cnc3c(cnn3-c3ccc(-c4ccccc4)cc3)c2=O)CC1 [Compound I-276] | 1 to 10
52 | O=C(N1CCC(O)(Cn2cnc3c(cnn3-c3ccccc3)c2=O)CC1)C1(C(F)(F)F)CC1 [Compound I-277] | 1 to 10
53 | CN(C)C(=O)N1CCC(O)(Cn2cnc3c(cnn3-c3ccc(F)cc3)c2=O)CC1 [Compound I-279] | 1 to 10
54 | O=C(c1ccc(Cl)cc1)N1CCC(O)(Cn2cnc3c(cnn3-c3ccccc3)c2=O)CC1 [Compound I-280] | 1 to 10
55 | O=C(c1ccccc1)N1CCC(O)(Cn2cnc3c(cnn3-c3cccc(CO)c3)c2=O)CC1 [Compound I-281] | 1 to 10
56 | O=C(c1ccc2c(Cl)ccnc2c1)N1CCC(O)(Cn2cnc3c(cnn3-c3ccccc3)c2=O)CC1 [Compound I-282] | 1 to 10
57 | O=C(c1ccc(OC2CC2)cc1)N1CCC(O)(Cn2cnc3c(cnn3-c3ccc(F)cc3)c2=O)CC1 [Compound I-283] | 1 to 10
58 | CNC(=O)N1CCC(O)(Cn2cnc3c(cnn3-c3ccc(F)cc3)c2=O)CC1 [Compound I-284, 4-{[1-(4-fluorophenyl)-4-oxo-1H,4H,5H-pyrazolo[3,4-d]pyrimidin-5-yl]methyl}-4-hydroxy-N-methylpiperidine-1-carboxamide] | 1 to 10
59 | O=C(c1ccnc(Cl)c1)N1CCC(O)(Cn2cnc3c(cnn3-c3ccccc3)c2=O)CC1 [Compound I-287] | 1 to 10
60 | O=C(N1CCC(O)(Cn2cnc3c(cnn3-c3ccccc3)c2=O)CC1)C12CC(C1)C2 [Compound I-289] | 0.2 to 1
61 | O=C(N1CCC(O)(Cn2cnc3c(cnn3-c3ccccc3)c2=O)CC1)C12CC(C(F)(F)F)(C1)C2 [Compound I-290] | 1 to 10
62 | CC(O)(c1ccc(C(=O)N2CCC(O)(Cn3cnc4c(cnn4-c4ccccc4)c3=O)CC2)cc1)C(F)(F)F (stereo not shown) [Compound I-291] | 1 to 10
63 | CC(F)(F)c1ccc(C(=O)N2CCC(O)(Cn3cnc4c(cnn4-c4ccccc4)c3=O)CC2)cc1 [Compound I-294] | 1 to 10
64 | O=C(C1CC1)N1CCC(O)(Cn2cnc3c(cnn3-c3ccc(Oc4ccccc4)cc3)c2=O)CC1 [Compound I-296] | 1 to 10
